Laboratory results as given in patent US20240034729A9, “HETEROCYCLIC COMPOUND, INTERMEDIATE, PREPARATION METHOD THEREFOR AND APPLICATION THEREOF” (WUHAN LL SCIENCE AND TECHNOLOGY DEVELOPMENT CO., LTD., priority 2018, published 2024).

Molecular target: hP2X3 (human purinergic P2X receptor subtype 3) (Homo sapiens (Human), UniProt P56373)
Test: FLIPR calcium assay, hP2X3 expressed in HEK293 cells
Type: cell-based
Conditions: HEK293 cells expressing hP2X3, agonist BZ-ATP 2.5 μM; class symbols; read-out: P2X3 IC50

Sequence of hP2X3 (human purinergic P2X receptor subtype 3) (P56373 whole entry): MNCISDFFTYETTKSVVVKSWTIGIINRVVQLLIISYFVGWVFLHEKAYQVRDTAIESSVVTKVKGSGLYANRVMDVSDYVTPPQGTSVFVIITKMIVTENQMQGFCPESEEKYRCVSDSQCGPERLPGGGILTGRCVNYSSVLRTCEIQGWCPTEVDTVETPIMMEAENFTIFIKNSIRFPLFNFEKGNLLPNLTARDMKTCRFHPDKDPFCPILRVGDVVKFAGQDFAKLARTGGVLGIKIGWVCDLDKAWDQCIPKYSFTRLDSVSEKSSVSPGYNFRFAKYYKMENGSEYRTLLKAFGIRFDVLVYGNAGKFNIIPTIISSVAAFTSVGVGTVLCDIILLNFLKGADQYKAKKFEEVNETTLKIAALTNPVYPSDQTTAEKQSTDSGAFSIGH

IC50 [µM]	Compound
0.2 to 5	CNC(=O)c1c[nH]c(-c2nc3cc(C)ccn3c2C[C@H]2CN(C(=O)OC)CCO2)c1F [Compound 24]
0.2 to 5	CNC(=O)c1cc(F)c(-c2[nH]c3cc(C)ccc3c2C[C@H]2CN(C(=O)OC)CCO2)c(F)c1 [Compound 39]
0.2 to 5	CNC(=O)c1cc(F)c(-c2nc3n(c2C[C@H]2CN(C(=O)OC)CCO2)CCN(C)C3)c(F)c1 [Compound 62]
0.2 to 5	CNC(=O)c1cc(F)c(-c2nc3cc(C)ccn3c2CN2CCNC(=O)C2)c(F)c1 [Compound 31]
0.2 to 5	COC(=O)N1CCO[C@@H](Cc2c(-c3c(F)cc(-n4ccc(C5(C(=O)O)CC5)n4)cc3F)nc3cc(C)ccn23)C1 [Compound 130, (S)-1-(1-(3,5-difluoro-4-(3-((4-(carbomethoxy<methoxycarbonyl>)morpholin-2-yl)methyl)-7-methylimidazo[1,2-a]pyridin-2-yl)phenyl)-1H-pyrazol-3-yl)cyclopropane-1-carboxylic acid]
0.2 to 5	CNC(=O)c1coc(-c2nc3cc(C)ccn3c2C[C@H]2CN(C(=O)OC)CCO2)c1F [Compound 22]
0.2 to 5	CNC(=N)c1cc(F)c(-c2nc3cc(C)ccn3c2C[C@H]2CN(C(=O)OC)CCO2)c(F)c1 [Compound 8, methyl (S)-2-((2-(2,6-difluoro-4-(N-methylcarbamimidoyl)phenyl)-7-methylimidazo[1,2-a]pyridin-3-yl)methyl)morpholine-4-carboxylate]
0.2 to 5	CNC(=O)c1ccc(-c2nc3cc(C)ccn3c2C[C@H]2CN(C(=O)OC)CCO2)s1 [Compound 21, methyl (S)-2-((7-methyl-2-(5-(methylcarbamoyl)thiophen-2-yl)imidazo[1,2-a]pyridin-3-yl)methyl)morpholine-4-carboxylate]
0.2 to 5	CNC(=O)c1cc(F)c(-c2nc3cc(C)ccn3c2C[C@H]2CN(C(=O)OC)CCN2)c(F)c1 [Compound 46]
0.2 to 5	COC(=O)N1CCO[C@@H](Cc2c(-c3c(F)cc(-n4cc(O)cn4)cc3F)nc3cc(C)ccn23)C1 [Compound 128, methyl (S)-2-((2-(2,6-difluoro-4-(4-hydroxy-1H-pyrazol-1-yl)phenyl)-7-methylimidazo[1,2-a]pyridin-3-yl)methyl)morpholine-4-carboxylate]
0.2 to 5	CNC(=O)c1cc(F)c(-c2nc3cc(C)ccn3c2CN2CCN(C(=O)OC)CC2)c(F)c1 [Compound 32]
0.2 to 5	COC(=O)N1CCO[C@@H](Cc2c(-c3c(F)cc(-c4ncco4)cc3F)nc3cc(F)ccn23)C1 [Compound 122]

Compound	IC50 [µM]
CNC(=O)c1cc(F)c(-c2nc3cc(C)ccn3c2CC(N)=O)c(F)c1 [Compound 19, 4-(3-(2-amino-2-oxoethyl)-7-methylimidazo[1,2-a]pyridine)-3,5-difluorobenzoylmethylamine]	0.2 to 5

Same assay, conditions: read-out: P2X3 IC50

Compound	IC50 [µM]
CNC(=O)c1cc(F)c(-c2oc3cc(C)ncc3c2C[C@H]2CN(C(=O)OC)CCO2)c(F)c1 [Compound 55, methyl (S)-2-((2-(2,6-difluoro-4-(methylcarbamoyl)phenyl)-6-methylfurano[3,2-c]pyridin-3-yl)methyl)morpholine-4-carboxylate]	< 0.01
COC(=O)N1CCO[C@@H](Cc2c(-c3c(F)cc(-n4ccc(C(C)(C)O)c4)cc3F)nc3cc(C)ccn23)C1 [Compound 135]	< 0.01
COC(=O)N1CCO[C@@H](Cc2c(-c3c(F)cc(-n4ccc(C5(O)CC5)n4)cc3F)nc3cc(C)ccn23)C1 [Compound 131]	0.01 to 0.05
COC(=O)N1CCO[C@@H](Cc2c(-c3c(F)cc(NC(=O)c4ccccc4)cc3F)nc3cc(C)ccn23)C1 [Compound 84]	0.05 to 0.2
CCC(=O)N1CCO[C@@H](Cc2c(-c3c(F)cc(-c4ccc(C#N)s4)cc3F)nc3cc(C)ccn23)C1 [Compound 140, (S)-5-(3,5-difluoro-4-(7-methyl-3-((4-propionylmorpholin-2-yl)methyl)imidazo[1,2-a]pyridin-2-yl)phenyl)thiophene-2-carbonitrile]	0.05 to 0.2
COC(=O)N1CCO[C@@H](Cc2c(-c3c(F)cc(-n4cnc(C(F)(F)F)c4)cc3F)nc3cc(C)ccn23)C1 [Compound 109, methyl (S)-2-((2-(2,6-difluoro-4-(4-trifluoromethyl-1H-imidazol-1-yl)phenyl)-7-methylimidazo[1,2-a]pyridin-3-yl)methyl)morpholine-4-carboxylate]	0.05 to 0.2
COC(=O)N1CCO[C@@H](Cc2c(-c3c(F)cc(NS(C)(=O)=O)cc3F)nc3cc(C)ccn23)C1 [Compound 152]	< 0.01
COC(=O)N1CCO[C@@H](Cc2c(-c3c(F)cc(-n4ccnn4)cc3F)nc3cc(C)ccn23)C1 [Compound 141, methyl (S)-2-((2-(2,6-difluoro-4-(1H-1,2,3-triazol-1-yl)phenyl)-7-methylimidazo[1,2-a]pyridin-3-yl)methyl)morpholine-4-carboxylate]	0.01 to 0.05
COC(=O)N1CCO[C@@H](Cc2c(-c3c(F)cc(NC(=O)CCC(C)(C)O)cc3F)nc3cc(C)ccn23)C1 [Compound 93]	0.01 to 0.05
CNC(c1cc(F)c(-c2nc3cc(C)ccn3c2C[C@H]2CN(C(=O)OC)CCO2)c(F)c1)C(F)(F)F (stereo partly drawn) [Compound 68, methyl (S)-2-((2-(2,6-difluoro-4-(2,2,2-trifluoro-1-(methylamino)ethyl)phenyl)-7-methylimidazo[1,2-a]pyridin-3-yl)methyl)morpholine-4-carboxylate]	0.01 to 0.05
COC(=O)N1CCO[C@@H](Cc2c(-c3c(F)cc(N4CCCC4=O)cc3F)nc3cc(C)ccn23)C1 [Compound 101]	0.01 to 0.05
COC(=O)N1CCO[C@@H](Cc2c(-c3c(F)cc(-c4ccc(C(=O)O)cn4)cc3F)nc3cc(C)ccn23)C1 [Compound 145]	0.05 to 0.2
COC(=O)N1CCO[C@@H](Cc2c(-c3c(F)cc(-n4ccc(C5(C(=O)O)CC5)c4)cc3F)nc3cc(C)ccn23)C1 [Compound 136]	0.05 to 0.2
COC(=O)N1CCO[C@@H](Cc2c(-c3c(F)cc(NC(=O)CC(C)C(=O)O)cc3F)nc3cc(C)ccn23)C1 (stereo partly drawn) [Compound 92]	0.01 to 0.05
CCC(=O)N1CCO[C@@H](Cc2c(-c3c(F)cc(NC(C)=O)cc3F)nc3cc(CF)ccn23)C1 [Compound 155]	< 0.01
COC(=O)N1CCO[C@@H](Cc2c(-c3c(F)cc(-c4nc(Cl)c[nH]4)cc3F)nc3cc(C)ccn23)C1 [Compound 34, methyl (S)-2-((2-(4-(4-chloro-1H-imidazol-2-yl)-2,6-difluorophenyl)-7-methylimidazo[1,2-a]pyridin-3-yl)methyl)morpholine-4-carboxylate]	< 0.01
COC(=O)N1CCO[C@@H](Cc2c(-c3c(F)cc(NC(=O)CC4(C(=O)O)CC4)cc3F)nc3cc(C)ccn23)C1 [Compound 95]	0.01 to 0.05
COC(=O)N1CCO[C@@H](Cc2c(C3CCN(C(C)=O)CC3)nc3cc(C)ccn23)C1 [Compound 30, methyl (S)-2-((2-(1-acetylpiperidin-4-yl)-7-methylimidazo[1,2-a]pyridin-3-yl)methyl)morpholine-4-carboxylate]	0.01 to 0.05
(S,E)-4-((3,5-difluoro-4-(3-((4-(methoxycarbonyl)-morpholin-2-yl)-methyl)-7-methylimidazo[1,2-a]pyri din-2-yl)-phenyl)-amino)-4-oxobutyl-2-enoic acid [Compound 27]	< 0.01
CCC(=O)N1CCO[C@@H](Cc2c(-c3c(F)cc(NC(C)=O)cc3F)nc3cc(C(F)F)ccn23)C1 [Compound 157]	< 0.01
